This is an account of results in ChEMBL document CHEMBL1201862, “PubChem BioAssay data set” (2004).

Each structure is given as a SMILES string.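 48-hour exposure; five concentrations; linearly interpolated endpoints. GI50 is the concentration that inhibits growth by half.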 The source made the active and inactive calls. Rule as the data show it: active = GI50 up to about 1.1 µM and inactive = higher.

Some test systems named below: 786-0; BT-549; EKVX; HCC 2998; HCT-116; Hs-578T; M14; NCI-H460; NCI-H522; OVCAR-3; OVCAR-8; PC-3; SF-268; SF-539; SN12C; SR; SW-620; T47D; TK-10; RXF 393.
Holding throughout (test): NCI-60 cell line screen, 48 h

For `C=C1CC(COc2ccc3c(C)c(C)c(=O)oc3c2C)(c2ccccc2)OC1=O` (centres undefined), the GI50 was 1.41 µM (inactive) in the assay with 786-0; 1.63 µM (inactive) with BT-549; 7.55 µM (inactive) with EKVX; 2.48 µM (inactive) with HCC 2998; 1.41 µM (inactive) with HCT-116; 4.26 µM (inactive) with Hs-578T. Also, the GI50 was 1.57 µM (inactive) with M14; 6.01 µM (inactive) with NCI-H460; 1.64 µM (inactive) in the assay with NCI-H522; 2.88 µM (inactive) with OVCAR-3; 1.72 µM (inactive) with OVCAR-8; 1.73 µM (inactive) with PC-3. Further, the GI50 in the assay on SF-268 was 2.64 µM (inactive); in the assay on SF-539, 2.02 µM (inactive); in the assay on SN12C, 3.39 µM (inactive); in the assay on SR, 1.46 µM (inactive); with SW-620, 1.22 µM (inactive); in the assay with T47D, 2.07 µM (inactive). For the same compound, in the assay on TK-10, the GI50 was 1.45 µM (inactive).

In the case of `CC(C)(Br)C(Br)CC/C(=C/CBr)CBr.CC(C)(Br)C(Br)CC/C(=C\CBr)CBr` (centres undefined), the GI50 was 1.95 µM (inactive) with 786-0; 2.45 µM (inactive) in the assay with BT-549; 25.3 µM (inactive) with EKVX; 13.5 µM (inactive) in the assay with HCC 2998; 2.13 µM (inactive) in the assay with HCT-116; 19.1 µM (inactive) in the assay on Hs-578T. The GI50 is 2.02 µM (inactive) with M14; 3.21 µM (inactive) with NCI-H460; 1.66 µM (inactive) in the assay on NCI-H522; 2.54 µM (inactive) in the assay on OVCAR-8; 2220 nM (inactive) in the assay with RXF 393; 2.21 µM (inactive) in the assay with SF-268. The GI50 was 4.66 µM (inactive) in the assay on SF-539; 2 µM (inactive) in the assay with SN12C; 0.783 µM (active) with SR; 2.71 µM (inactive) in the assay on SW-620; 2.76 µM (inactive) in the assay with T47D; 8.77 µM (inactive) in the assay with TK-10.

Take `C/C(=N\O)c1ccc(Nc2nc3ccccc3c3occc23)cc1`: the GI50 is 3.8 µM (inactive) with 786-0; 18.3 µM (inactive) in the assay with BT-549; 21.7 µM (inactive) with EKVX; 4.1 µM (inactive) in the assay with HCC 2998; 4.89 µM (inactive) with HCT-116; 9.18 µM (inactive) in the assay with Hs-578T. For the same compound, the GI50 with M14 was 4.86 µM (inactive); with NCI-H460, 1.82 µM (inactive); in the assay with NCI-H522 it was 3.34 µM (inactive); with OVCAR-3, 12.4 µM (inactive); in the assay on OVCAR-8, 15.2 µM (inactive); in the assay with PC-3 it was 10.6 µM (inactive). For the same compound, the GI50 in the assay on SF-268 was 6.31 µM (inactive); in the assay on SF-539 it was 6.68 µM (inactive); with SN12C, 13.1 µM (inactive); in the assay with SR, 2.37 µM (inactive); in the assay on T47D, 5.45 µM (inactive); in the assay on TK-10 it was 2.9 µM (inactive).

As for `Cc1cccc(/C=N/NC(=S)NCCc2ccccn2)n1`, the GI50 was 23.3 µM (inactive) in the assay on 786-0; 35.2 µM (inactive) in the assay on BT-549; 38.2 µM (inactive) in the assay with EKVX; 42.2 µM (inactive) in the assay with HCC 2998; 31.8 µM (inactive) in the assay with HCT-116; 53.5 µM (inactive) in the assay with Hs-578T. Further, the GI50 in the assay with M14 is 16.7 µM (inactive); with NCI-H460, 14.9 µM (inactive); in the assay with NCI-H522, 34.8 µM (inactive); in the assay on OVCAR-3, 48 µM (inactive); in the assay with OVCAR-8, 27.9 µM (inactive); with PC-3, 35.2 µM (inactive). Besides, the GI50 is 19.6 µM (inactive) in the assay with SF-268; 26.7 µM (inactive) with SF-539; 29.9 µM (inactive) in the assay with SN12C; 28.4 µM (inactive) in the assay on SR; 42.5 µM (inactive) with SW-620; 37.8 µM (inactive) in the assay on T47D. In addition, the GI50 in the assay on TK-10 was 71.4 µM (inactive).

For `COc1ccc2oc(=O)c(CC=C(C)C)c(O)c2c1C`, the GI50 with 786-0, in the assay on BT-549, with EKVX, in the assay with HCC 2998, with HCT-116 and in the assay with Hs-578T was > 100 µM (inactive) in each case. For the same compound, the GI50 with M14, in the assay on NCI-H460, with NCI-H522, in the assay on OVCAR-3, in the assay with OVCAR-8 and in the assay on PC-3 was > 100 µM (inactive) throughout. The GI50 in the assay with SF-268, with SF-539, in the assay on SN12C, in the assay on SR, with SW-620 and in the assay with T47D was > 100 µM (inactive) in each case. Also, the GI50 with TK-10 is > 100 µM (inactive).

As for `COc1cc2c(c(O)c1OC)CC1CCC(=O)N1C2c1cccc2ccccc12` (centres undefined), the GI50 was 30.3 µM (inactive) in the assay with 786-0; 22.3 µM (inactive) in the assay on BT-549; 22.3 µM (inactive) in the assay on EKVX; 16 µM (inactive) in the assay with HCC 2998; 20.4 µM (inactive) with HCT-116; 19.7 µM (inactive) with Hs-578T. The GI50 in the assay on M14 was 17.4 µM (inactive); with NCI-H460 it was 22.9 µM (inactive); in the assay on NCI-H522, 20.3 µM (inactive); in the assay with OVCAR-3, 22.2 µM (inactive); in the assay with OVCAR-8, 20 µM (inactive); in the assay on PC-3, 15.6 µM (inactive). Also, the GI50 in the assay on SF-268 is 25.1 µM (inactive); in the assay on SF-539, 16.1 µM (inactive); with SN12C, 16.9 µM (inactive); with SR it was > 100 µM (inactive); in the assay with SW-620, 27.7 µM (inactive); in the assay on T47D, 18.9 µM (inactive). In addition, the GI50 in the assay on TK-10 is 39.4 µM (inactive).

`Cc1ccc(N2C(=O)C(O)=C(C(=O)C(C)(C)C)C2c2ccc([N+](=O)[O-])cc2)cc1` (centres undefined): the GI50 was 16.3 µM (inactive) in the assay with 786-0; 11.1 µM (inactive) in the assay on BT-549; 26.9 µM (inactive) with EKVX; 17.7 µM (inactive) in the assay on HCC 2998; 16 µM (inactive) with HCT-116; 16.9 µM (inactive) in the assay on Hs-578T. Further, the GI50 was 18.2 µM (inactive) in the assay on M14; 9.27 µM (inactive) in the assay on NCI-H460; 19.6 µM (inactive) in the assay with OVCAR-3; 18.9 µM (inactive) in the assay on OVCAR-8; 29.9 µM (inactive) in the assay with PC-3; 13 µM (inactive) in the assay on SF-268. Also, the GI50 is 24.9 µM (inactive) with SF-539; 15.4 µM (inactive) with SN12C; 7.53 µM (inactive) with SR; 18.8 µM (inactive) in the assay with T47D; 36.2 µM (inactive) with TK-10.

Turning to `COc1ccc(S(=O)(=O)O)cc1NS(=O)(=O)c1ccc(C)cc1`, the GI50 in the assay with 786-0, in the assay with BT-549, with EKVX, in the assay with HCT-116, with Hs-578T and with M14 was > 100 µM (inactive) in each case. Also, the GI50 in the assay with NCI-H460, in the assay with NCI-H522, with OVCAR-3, in the assay on OVCAR-8, in the assay with PC-3 and with SF-268 was > 100 µM (inactive) throughout. For the same compound, the GI50 in the assay on SF-539, with SN12C, with SR, in the assay with SW-620, with T47D and in the assay with TK-10 was > 100 µM (inactive) in each case.

With `O=C(O)C1CC(c2ccccc2)=NN1c1ccccc1` (centres undefined), the GI50 with 786-0 is 56.9 µM (inactive); in the assay with BT-549, 66.5 µM (inactive); in the assay on EKVX, 24 µM (inactive); in the assay with HCC 2998, 24.1 µM (inactive); in the assay with HCT-116 it was 66.7 µM (inactive); in the assay with Hs-578T, 25.4 µM (inactive). For the same compound, the GI50 in the assay on M14 is 75 µM (inactive); in the assay with NCI-H460, 54.7 µM (inactive); in the assay with NCI-H522 it was 27.4 µM (inactive); in the assay on OVCAR-3, 42 µM (inactive); with OVCAR-8, > 100 µM (inactive); in the assay on PC-3 it was 41 µM (inactive). In addition, the GI50 in the assay on RXF 393 is 87100 nM (inactive); with SF-268, 81.1 µM (inactive); in the assay on SF-539, 93.5 µM (inactive); in the assay with SN12C, > 100 µM (inactive); with SW-620 it was 92.3 µM (inactive); with T47D, 52 µM (inactive). Further, the GI50 in the assay on TK-10 is 64 µM (inactive).

Consider `O=C(CCN1CCCC1)Nc1ccc2sc3ccccc3c(=O)c2n1`, for which the GI50 with 786-0 is 11.7 µM (inactive); in the assay with BT-549, 13.6 µM (inactive); with EKVX, 12.4 µM (inactive); with HCC 2998, 12.3 µM (inactive); in the assay with HCT-116, 11.5 µM (inactive); in the assay on Hs-578T it was 11.8 µM (inactive). In addition, the GI50 in the assay with M14 is 13.2 µM (inactive); with NCI-H460, > 10 µM (inactive); in the assay on NCI-H522, 10.5 µM (inactive); with OVCAR-3, 14.5 µM (inactive); in the assay on OVCAR-8, 11.4 µM (inactive); in the assay with PC-3 it was 13.5 µM (inactive). In addition, the GI50 was 17.2 µM (inactive) in the assay on SF-268; 12.6 µM (inactive) in the assay with SF-539; 10.1 µM (inactive) in the assay with SN12C; 8.89 µM (inactive) with SR; 12.4 µM (inactive) with SW-620; 19.2 µM (inactive) in the assay with T47D. For the same compound, the GI50 in the assay with TK-10 was > 10 µM (inactive).

For the compound `C[C@@H]1O[C@@H](O[C@H]2CC[C@]3(C=O)[C@H]4CC[C@]5(C)[C@@H](C6=CC(=O)OC6)CC[C@]5(O)[C@@H]4CC[C@]3(O)C2)[C@H](O)[C@H](O)[C@H]1O` [CONVALLATOXIN], the GI50 in the assay with 786-0 was 8.79e-06 µM (active); with BT-549, 1.32e-05 µM (active); in the assay on EKVX, 9.51e-06 µM (active); in the assay on HCC 2998, < 0.01 µM (active); in the assay on HCT-116, < 0.01 µM (active); in the assay on Hs-578T, < 0.01 µM (active). Also, the GI50 in the assay with M14 is 0.0146 µM (active); with NCI-H460, 8.47e-06 µM (active); in the assay on NCI-H522, 9.93e-06 µM (active); with OVCAR-3 it was 8.91e-06 µM (active); with OVCAR-8, 2.94e-05 µM (active); in the assay with PC-3 it was 2.62e-05 µM (active). For the same compound, the GI50 with RXF 393 is 0.0167 nM (active); with SF-268, 1.21e-05 µM (active); in the assay with SF-539, 1.83e-05 µM (active); with SN12C, 8.69e-06 µM (active); in the assay with SW-620, 3.93e-05 µM (active); in the assay with T47D, 5.62e-05 µM (active). Besides, the GI50 in the assay on TK-10 is 2.88e-05 µM (active).
